One molecule from US20220372013A2, “PIPERIDINE-2,6-DIONE DERIVATIVES AND CROHN'S DISEASE TREATING” (Tianjin Hemay Pharmaceutical Sci-Tech Co., Ltd, priority 2016, published 2022) can be followed below.

The subject of the assay is DNBS-Induced Inflammatory Bowel Disease Models in Rats. The experiment in a line: Biological Example 1: DNBS-induced inflammatory bowel disease models in rats. The assay is classed as in vivo, Wistar rats. Particulars: for Adhesion Degree / Colon MPO Activity / Colon Weight / Colon weight to length ratio / Ulcer Area: sixth day, Mean ± SD. As for the experimental part: Wistar rats, male, body weight of 100-120 g.
90 male Wistar rats were fasted for 40 hours. A 5% glucose injection was administered subcutaneously during fasting. 60 rats with normal conditions and moderate body weight were selected from the fasting rats. The animals were randomly divided into 6 groups according to the body weight: normal control group, model control group, sulfasalazine group (300 mg/Kg), and the compound in Example 27 groups consisting of 5, 15 and 30 mg/Kg dose groups. There were 10 rats in each group. The animals were anesthetized with ether. A specially made gavage device (made by a rat gavage device having the diameter of 2 mm, which was nested on a mouse gavage device having the diameter of 1 mm) was slowly inserted into the enteric cavity at 8 cm from the anus. The model control group, the sulfasalazine group and the compound in Example 27 groups were administered with 0.5 mL of 50 mg/mL DNBS in 30% ethanol solution. The normal control group was administered with 0.5 mL of 30% ethanol solution. The animals were inverted in anesthesia for 15 minutes after the gavage device was removed. The day when the model was prepared was the first day of the experiment. After 4 hours of DNBS induction, the corresponding drug or the corresponding volume of 1% CMC-Na was administered once per day. The body weights were recorded and the stool characteristics were scored. On the sixth day of the experiment colon tissues were taken from the animals to observe the results of each index.
The compound in Example 27 and sulfasalazine: Preparation Method: Suspended with 1% CMC-Na, and prepared when it was needed.
Animals were euthanized on the sixth day of the experiment to observe the results of each index. After the animals were sacrificed, colons were obtained. The adhesion degree of colon was observed and the length of the colon was measured. The ulcer area was calculated after removing the contents in the colon and the weight of the colon tissue was weighed. The colon tissue was longitudinally divided into two parts. One part of the colon tissue was fixed in 10% formalin solution for later use. The other part of the colon tissue was put into the liquid nitrogen to quickly frozen, and then was reserved at −80° C. for the detection of MPO.
Calculation method for ulcer area: length of ulcer point (cm)×width of ulcer point (cm).
The frozen tissue was ground into powder in liquid nitrogen. An appropriate amount of the powder was weighed and was added into 50 mM potassium phosphate solution (containing 0.5% cetyltrimethylammonium bromide) to give a 25 mg/mL solution. The resultant solution was homogenized by an electric homogenizer. 1 mL of suspension was centrifuged to give a supernatant. 7 μL of the supernatant was added into a 96-well plate and 200 μL of o-dianisidine mixture (containing 0.167 mg/mL o-dianisidine and 0.0006% H2O2 potassium phosphate buffer). OD values of the resultant solution at 0, 30, 60, and 90 s were detected at 450 nm of the microplate reader.
Test for homogeneity of variance was performed with Spss13.0. Where variance of data was homogeneous (P>0.05), one-way ANOVA LSD test was performed. Where the analysis of variance was significant (P<0.05), then Dunnett's multiple comparison (parameter method) or Kruskal-Wallis non-parametric test was performed. Where the results of Kruskal-Wallis non-parametric test were significant (P<0.05), the Mann-Whitney U test was performed for pairwise comparison.

`COCCN1C(=O)CCC(N2C(=O)c3cccc(N)c3C2=O)C1=O` (centres unmarked) [Example 27, 4-amino-2-(1-(2-methoxyethyl)-2,6-dioxopiperidin-3-yl)isoindolin-1,3-dione]: under “5 mg/Kg i.g. qd × 6”, the “Adhesion Degree” value was 0.4 ± 0.7 Point, the “Colon MPO Activity” value is recorded as 20.3 ± 19.8 U/mg, the “Colon Weight” value was found to be 1775.7 ± 321.0 mg and the “Colon weight to length ratio” value is reported as 144.2 ± 30.5 mg/cm. Besides, the “Ulcer Area” value (5 mg/Kg i.g. qd × 6) came out at 0.8 ± 0.9 cm^2. For the same molecule, the “therapeutic effect (in words)” value (5 mg/Kg, 15 mg/Kg and 30 mg/Kg) is “a certain dose effect and a good therapeutic effect without the weight loss of animals”. Further, where the note is “15 mg/Kg i.g. qd × 6”, the “Adhesion Degree” value turned out to be 0.1 ± 0.3 Point, the “Colon MPO Activity” value was 16.7 ± 9.8 U/mg, the “Colon Weight” value worked out at 1668.7 ± 245.3 mg and the “Colon weight to length ratio” value is 127.1 ± 13.7 mg/cm. Besides, for the setting “15 mg/Kg i.g. qd × 6”, the “Ulcer Area” value is recorded as 0.7 ± 0.9 cm^2. Also, where the note is “30 mg/Kg i.g. qd × 6”, the “Adhesion Degree” value came out at 0.1 ± 0.3 Point, the “Colon MPO Activity” value is 15.1 ± 13.0 U/mg, the “Colon Weight” value is 1534.7 ± 156.2 mg and the “Colon weight to length ratio” value is 117.7 ± 19.4 mg/cm. Besides, the “Ulcer Area” value (30 mg/Kg i.g. qd × 6) amounted to 0.3 ± 0.5 cm^2. The “reduction of the ulcer area” value (30 mg/Kg, vs model control group) is “about 80%”.
